This is an account of results in patent US8440694B2, “Quinoline compounds suitable for treating disorders that respond to modulation of the serotonin-5-HT6 receptor” (Abbott GmbH & Co. KG, priority 2007, dated 2013).

Where a name gives a salt, the structure may show the parent alone.

For this experiment, the target named is T1, h-5-HT6 receptor (Homo sapiens, UniProt P50406).
T1 construct: expressed in transfected cells
T1 sequence (P50406 whole entry): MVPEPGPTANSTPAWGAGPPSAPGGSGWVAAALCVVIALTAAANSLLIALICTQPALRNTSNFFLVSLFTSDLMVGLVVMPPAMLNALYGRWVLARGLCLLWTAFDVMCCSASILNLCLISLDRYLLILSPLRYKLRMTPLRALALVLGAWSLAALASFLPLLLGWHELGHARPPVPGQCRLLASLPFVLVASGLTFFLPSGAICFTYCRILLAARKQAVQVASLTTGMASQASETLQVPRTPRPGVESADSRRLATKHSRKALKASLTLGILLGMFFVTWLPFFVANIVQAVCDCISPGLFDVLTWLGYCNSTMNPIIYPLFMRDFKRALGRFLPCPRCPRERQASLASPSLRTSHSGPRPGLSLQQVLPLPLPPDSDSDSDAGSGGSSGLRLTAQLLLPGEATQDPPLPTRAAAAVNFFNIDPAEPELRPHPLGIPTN
Briefly: 5-HT6 receptor binding assay (displacement of [3H]-LSD). The settings on record: membranes of HEK293 cells stably expressing h-5-HT6 receptor, [3H]-LSD displacement. How it is done: Displacement of Radioligands Binding to the Following Cloned Human Receptors
Cells from stable clonal cell lines expressing the corresponding receptor (5-HT6, α1-adrenergic, dopamine D2 or histamine H1 receptors) were washed with PBS (w/o Ca^++, Mg^++) and harvested in PBS with 0.02% EDTA. The cells were collected by centrifugation at 500 g for 10 min. at 4° C., washed with PBS and centrifuged (500 g, 10 min. 4° C.). The pellets were stored at −80° C. until use. For membrane preparation, the thawed cell pellet was resuspended in ice-cold sucrose buffer (0.25 M sucrose, 10 mM Hepes (pH 7.4), 1 mM Phenylmethylsulfonyl fluoride (PMSF) in DMSO, 5 μg/ml Pepstatin-A, 3 mM EDTA, 0.025% Bacitracin) and homogenized with a Branson Sonifier W-250 (Settings: Timer 4; Output Control 3; Duty Cycle constant; 2 to 3 cycles). Cell disruption was checked with the aid of a microscope. Remaining unbroken cells were pelleted at 1.000 g for 10 min. at 4° C. The sucrose buffer supernatant was then centrifuged at 60.000 g for 1 h at 4° C. (Beckman Ultrazentrifuge XL 80). The pellet was resuspended in 30 ml ice-cold Tris buffer (20 mM TRIS (pH 7.4), 5 μg/ml Pepstatin A, 0.1 mM PMSF, 3 mM EDTA) by pipetting through a 10 ml serological pipet and centrifuged for 1 h at 4° C. at 60.000 g. A final resuspension was performed in a small volume of ice-cold Tris buffer (see above) by pressing through a serological pipet followed by ultrasonic treatment with a Branson Sonifier W-250 (Settings: Timer 1; Output Control 3; Duty Cycle constant; 1 cycle). Protein concentration was determined (BCA-Kit; Pierce) and aliquots stored at −80° C. or in liquid nitrogen for long-term storage.
All receptor binding experiments were carried out in the corresponding assay buffer in a total volume of 200 μl in the presence of various concentrations of test compound (10^−5 M to 10^−9 M, tenfold serial dilution, duplicate determinations). The assays were terminated by filtration on polyethylenimine (PEI 0.1% or 0.3%) presoaked Packard Unifilter Plates (GF/C or GF/B) with a Tomtec MachIII U 96well-plate harvester. After the plates had been dried for 2 h at 55° C. in a drying chamber scintillation cocktail (BetaPlate Scint; PerkinElmer) was added. Radioactivity was measured in a Microbeta Trilux two hours after the addition of the scintillation mixture. Data derived from liquid scintillation counting were analysed by iterative non-linear regression analysis with the use of the Statistical Analysis System (SAS): a program similar to “LIGAND” as described by Munson and Rodbard (Analytical Biochemistry 107, 220-239 (1980).
HEK293 cells stably expressing the h-5-HT6 receptor (NCBI Reference Sequence XM 001435) were cultured in RPMI1640 medium supplemented with 25 mM HEPES, 10% fetal calf serum and 1-2 mM glutamine. The membrane preparation was performed as described in section 1. […] Non-specific binding was defined with 1 μM methiothepin. The binding reaction was carried out for 3.5 h at room temperature. During the incubation, the plates were shaken on a plate shaker at 100 rpm and terminated by filtration on Packard Unifilter GF/C (0.1% PEI) plates, followed by 2 wash cycles with ice-cold 50 mM Tris-HCl, 5 mM CaCl2.
Data derived from liquid scintillation counting were analyzed by iterative non-linear regression analysis with the use of the Statistical Analysis System (SAS): a program similar to “LIGAND” as described by Munson and Rodbard (Anal. Biochem. 1980, 107, 220-239). Fitting was performed according to formulae described by Feldman (Anal. Biochem. 1972, 48, 317-338). IC50, nH and Ki values were expressed as geometrical mean.
A general note: Loss of bound radioactivity is the signal in a displacement assay; it reports binding, not function.
One may read the Ki as a dissociation constant, usually derived from enzyme kinetics or from competition with a known ligand. For `O=S(=O)(c1cccc(F)c1)c1cnc2c(N3C[C@H]4CN[C@H]4C3)cccc2c1` [Example 28, 8-(1R,5R)-3,6-Diaza-bicyclo[3.2.0]hept-3-yl-3-(3-fluoro-benzenesulfonyl)-quinoline hydrochloride], the Ki is less than 10 nM. Take `CC(C)(C)OC(=O)N1CC2CN(c3cccc4cc(S(=O)(=O)c5cccc(OC(F)(F)F)c5)cnc34)CC2C1` (stereo not drawn) [Example 15, tert-butyl 5-(3-(3-(trifluoromethoxy)phenylsulfonyl)quinolin-8-yl)hexahydropyrrolo[3,4-c]pyrrole-2 (1H)-carboxylate]: the Ki was less than 50 nM. With `O=S(=O)(c1cccc(OC(F)(F)F)c1)c1cnc2c(N3CC4CNCC4C3)cccc2c1` (stereo not drawn) [Example 16, 8-(hexahydropyrrolo[3,4-c]pyrrol-2(1H)-yl)-3-(3-(trifluoromethoxy)-phenylsulfonyl)quinoline] the figure was less than 10 nM; with `O=S(=O)(c1ccccc1)c1cnc2c(N3CCC4NC5CCCCC5C4C3)cccc2c1` (stereo not drawn) [Example 42, 2-(3-(phenylsulfonyl)quinolin-8-yl)dodecahydro-1H-pyrido[4,3-b]indole], less than 250 nM; with `O=S(=O)(c1cccc(F)c1)c1cnc2c(N3CC4CCNC4C3)cccc2c1` (stereo not drawn) [Example 29, 3-(3-Fluoro-benzenesulfonyl)-8-(hexahydro-pyrrolo[3,4-b]pyrrol-5-yl)-quinoline hydrochloride], less than 10 nM. With `O=S(=O)(c1ccccc1)c1cnc2c(N3CC4CNCC4C3)cccc2c1` (stereo not drawn) [Example 43, 8-(hexahydropyrrolo[3,4-c]pyrrol-2(1H)-yl)-3-(phenylsulfonyl)quinoline] the figure was less than 10 nM. `O=S(=O)(c1cccc(C(F)(F)F)c1)c1cnc2c(N3CC4CCNCC4C3)cccc2c1` (stereo not drawn) [Example 44, 8-(1H-pyrrolo[3,4-c]pyridin-2(3H,3aH,4H,5H,6H,7H,7aH)-yl)-3-(3-(trifluoromethyl)phenylsulfonyl)quinoline] had a Ki of less than 10 nM. The molecule `O=S(=O)(c1cccc(F)c1)c1cnc2c(N3CC[C@H]4CNC[C@H]43)cccc2c1` [Example 26, 3-(3-Fluoro-benzenesulfonyl)-8-(3aS,6aS)-hexahydropyrrolo[3,4-b]pyrrol-1-yl-quinoline hydrochloride] had a Ki of less than 10 nM.

On to `O=S(=O)(c1ccccc1)c1cnc2c(N3CC4CCNCC4C3)cccc2c1` (stereo not drawn) [Example 4, 3-(Phenylsulfonyl)-8-(1H-pyrrolo[3,4-c]pyridin-2(3H,3aH,4H,5H,6H,-7H,7aH)-yl)quinoline], for which the Ki is less than 10 nM.

`O=C(OCc1ccccc1)N1CC2CN(c3cccc4cc(S(=O)(=O)c5ccccc5)cnc34)C2C1` (stereo not drawn) [Example 2, Benzyl 6-(3-(phenylsulfonyl)quinolin-8-yl)-3,6-diazabicyclo[3.2.0]heptane-3-carboxylate]: the Ki is less than 250 nM.

The molecule `O=S(=O)(c1cccc(OC(F)(F)F)c1)c1cnc2c(N3CC4CCNCC4C3)cccc2c1` (stereo not drawn) [Example 20, 8-(1H-pyrrolo[3,4-c]pyridin-2(3H,3aH,4H,5H,6H,7H,7aH)-yl)-3-(3-(trifluoromethoxy)phenylsulfonyl)quinoline] showed a Ki of less than 10 nM.

In turn, `O=S(=O)(c1ccc(F)cc1)c1cnc2c(N3CC4CNCC4C3)cccc2c1` (stereo not drawn) [Example 14, 3-(4-fluorophenylsulfonyl)-8-(hexahydropyrrolo[3,4-c]pyrrol-2(1H)-yl)quinoline] showed a Ki of less than 10 nM.

With `O=S(=O)(c1ccccc1)c1cnc2c(N3CC[C@H]4CNC[C@H]43)cccc2c1` [Example 12, 8-((3aS,6aS)-hexahydropyrrolo[3,4-b]pyrrol-1(2H)-yl)-3-(phenylsulfonyl)-quinoline], the Ki is less than 10 nM. With `O=S(=O)(c1cccc(F)c1)c1cnc2c(N3C[C@H]4CNC[C@H]4C3)cccc2c1` [Example 30, 3-(3-Fluoro-benzenesulfonyl)-8-(3aR,6aS)-hexahydro-pyrrolo[3,4-c]pyrrol-2-yl-quinoline hydrochloride] the figure was less than 10 nM. In turn, `O=S(=O)(c1ccccc1)c1cnc2c(N3CC4CCNC4C3)cccc2c1` (stereo not drawn) [Example 1, 8-(Hexahydropyrrolo[3,4-b]pyrrol-5(1H)-yl)-3-(phenylsulfonyl)quinoline hydrochloride] had a Ki of less than 10 nM.

For `CC(C)(C)OC(=O)N1CCC2CN(c3cccc4cc(S(=O)(=O)c5cccc(OC(F)(F)F)c5)cnc34)CC2C1` (stereo not drawn) [Example 19, tert-butyl 2-(3-(3-(trifluoromethoxy)phenylsulfonyl)quinolin-8-yl)hexahydro-1H-pyrrolo[3,4-c]pyridine-5(6H)-carboxylate], the Ki was less than 50 nM. Regarding `O=S(=O)(c1ccccc1)c1cnc2c(N3CC4CN(Cc5ccccc5)CC4C3)cccc2c1` (stereo not drawn) [Example 40, 8-(5-benzylhexahydropyrrolo[3,4-c]pyrrol-2(1H)-yl)-3-(phenylsulfonyl)-quinoline], the Ki was less than 10 nM. With `O=S(=O)(c1cccc(C(F)(F)F)c1)c1cnc2c(N3C[C@H]4CNC[C@H]4C3)cccc2c1` [Example 24, 8-((3aR,6aS)-hexahydropyrrolo[3,4-c]pyrrol-2(1H)-yl)-3-(3-(trifluoromethyl)phenylsulfonyl)quinoline] the figure was less than 10 nM.

In turn, `O=S(=O)(c1ccc(F)cc1)c1cnc2c(N3CC4CCNC4C3)cccc2c1` (stereo not drawn) [Example 39, 3-(4-fluorophenylsulfonyl)-8-(hexahydropyrrolo[3,4-b]pyrrol-5(1H)-yl)quinoline] returned a Ki of less than 10 nM. With `CC(C)(C)OC(=O)N1CCC2CN(c3cccc4cc(S(=O)(=O)c5ccccc5)cnc34)CC2C1` (stereo not drawn) [Example 3, tert-butyl 2-(3-(phenylsulfonyl)quinolin-8-yl)hexahydro-1H-pyrrolo[3,4-c]pyridine-5(6H)-carboxylate] the figure was less than 250 nM. In turn, `O=S(=O)(c1cccc(F)c1)c1cnc2c(N3CC4CCCNC4C3)cccc2c1` (stereo not drawn) [Example 31, 6-(3-(3-fluorophenylsulfonyl)quinolin-8-yl)octahydro-1H-pyrrolo[3,4-b]pyridin-1-ium chloride] showed a Ki of less than 10 nM.

For `O=S(=O)(c1ccc(F)cc1)c1cnc2c(N3CC4CCNCC4C3)cccc2c1` (stereo not drawn) [Example 13, 3-(4-fluorophenylsulfonyl)-8-(1H-pyrrolo[3,4-c]pyridin-2(3H,3aH,4H,5H,6H,7H,7aH)-yl)quinoline], the Ki was less than 10 nM. The same measure for `CN1CCC2CN(c3cccc4cc(S(=O)(=O)c5ccccc5)cnc34)CC2C1` (stereo not drawn) [Example 41, 8-(5-methyl-1H-pyrrolo[3,4-c]pyridin-2(3H,3aH,4H,5H,6H,7H,7aH)-yl)-3]: less than 50 nM. With `O=S(=O)(c1cccc(C(F)(F)F)c1)c1cnc2c(N3CC4CCNC4C3)cccc2c1` (stereo not drawn) [Example 22, 8-(hexahydropyrrolo[3,4-b]pyrrol-5(1H)-yl)-3-(3-(trifluoromethyl)-phenylsulfonyl)quinoline], the Ki was less than 10 nM.

As to `O=S(=O)(c1cccc(N2CC3CNCC3C2)c1)c1cnc2c(N3CC4CNCC4C3)cccc2c1` (stereo not drawn) [Example 18, 8-(hexahydropyrrolo[3,4-c]pyrrol-2(1H)-yl)-3-(3-(hexahydropyrrolo[3,4-c]pyrrol-2(1H)-yl)phenylsulfonyl)quinoline], the Ki was less than 10 nM.

`O=S(=O)(c1ccccc1)c1cnc2c(N3CCCC4NCCCC43)cccc2c1` (stereo not drawn) [Example 10, 1-(3-(phenylsulfonyl)quinolin-8-yl)decahydro-1,5-naphthyridine] showed a Ki of less than 250 nM. As for `O=S(=O)(c1cccc(F)c1)c1cnc2c(N3C[C@@H]4CN[C@@H]4C3)cccc2c1` [Example 32, (1S,5S)-3-(3-(3-fluorophenylsulfonyl)quinolin-8-yl)-3-aza-6-azoniabicyclo[3.2.0]heptane hydrochloride], the Ki was less than 10 nM.
